Measurements from patent US20100222309A1, “SKIN PROPERTY-IMPROVING THERAPEUTIC AGENT COMPRISING A MORPHINAN DERIVATIVE OR ANY OF ITS PHARMACOLOGICALLY PERMISSIBLE ACID ADDITION SALTS AS AN ACTIVE INGREDIENT” (TORAY INDUSTRIES, INC., priority 2007, published 2010).

Tested on: itch patients treated with hemodialysis
Experiment: Oral administration of compound 1 soft capsules to itch patients treated with hemodialysis; skin properties and itching observed
[1] = one of the patients, after end of administration

CN(C(=O)/C=C/c1ccoc1)[C@@H]1CC[C@@]2(O)[C@H]3Cc4ccc(O)c5c4[C@@]2(CCN3CC2CC2)[C@H]1O5.Cl [compound 1]
itching [1]: began to feel itching again
skin moisture [1]: began to have dry skin
itching (patient, two capsules (5.0 μg) oral, after start of administration): began to feel less itching
